According to patent publication US8637310B2, “Use of a rock inhibitor to sustain primary human keratinocytes in a proliferative state” (The United States of America, as represented by the …, priority 2008, dated 2014):

Tests used:
[1] = test system: human vaginal keratinocytes (HVK); assay: Long-term culture / immortalization of primary human vaginal keratinocytes on feeder cells; assay type: cell-based; conditions: 10 μM Y-27632; FIG. 9
Experimental: (§1) The HPV18 cell line was established by introducing the HPV18 genome into primary HFKs using the Amaxa human keratinocyte nucleofection system. Primary human cervical keratinocytes (HCKs), human vaginal keratinocytes (HVKs), the HPV18 cell lines and the HPV31 positive cell line (CIN-612 9E) were grown in the presence or absence of 10 μM Y-27632 (Alexis Biochemicals), as indicated. Cells were subcultured by removing the fibroblast feeder cells with versene and keratinocytes were collected by trypsinization. At each pass, 2×10^5 cells were plated on a 10 cm plate of J2 feeder cells. Population doubling was calculated as: PD=3.32(log(# cells harvested/# cells seeded)). Immunodetection

Myc = assay: Immunodetection of Myc; assay type: cell-based, human
Experimental: Proteins were extracted in 2% sodium dodecyl sulfate (SDS), 50 mM Tris-HCl (pH 6.8), 10% glycerol supplemented with inhibitors Complete and PhosphoSTOP (Roche, Indianapolis, Ind.). Protein samples were resolved on NuPage gels, electrotransferred to Immobilon-P membrane (Millipore, Billerica, Mass.), and probed with the relevant antibodies before detection by chemiluminescence. Monoclonal antibody against p53 (DO-1) was obtained from Santa Cruz Biotechnology (Santa Cruz, Calif.). Monoclonal antibody against α-tubulin (B-5-1-2) was obtained from Sigma-Aldrich. Polyclonal antibodies against Myc (N-262), p21 (C-19), and p16 (C-20) were obtained from Santa Cruz Biotechnology.

[2] = test system: human cervical keratinocytes (HCK); assay: Long-term culture / immortalization of primary human cervical keratinocytes on feeder cells; assay type: cell-based; conditions: 10 μM Y-27632; FIG. 9
Experimental: as §1

[3] = test system: primary human foreskin keratinocytes; conditions: cited from earlier work

With `CC(N)[C@H]1CC[C@H](C(=O)Nc2ccncc2)CC1` (single isomer, unassigned; (+)) [Y-27632, (+)-trans-N-(4-Pyridyl)-4-(1-aminoethyl)-cyclohexanecarboxamide] as the molecule, how does the bypass of senescence [1] read?
Its bypass of senescence is “efficiently bypassed senescence with no observed decline in growth rate”.

What about the cellular proliferation [1] of the same molecule?
Its cellular proliferation is “dramatic increase in cellular proliferation”.

What about the Myc protein levels (Myc; immediately after culture with Y-27632, HFK, HCK, HVK, FIG. 12A) of the same molecule?
Its Myc protein levels is “induced transiently”.

What about the “level of Myc” value (Myc; very late passages (p107), FIG. 16) of the same molecule?
The value was “equivalent to that of an HPV31-containing cell line”.

What about the bypass of senescence [2] of the same molecule?
The bypass of senescence was “efficiently bypassed senescence with no observed decline in growth rate”.

And the cellular proliferation [2]?
The cellular proliferation was “dramatic increase in cellular proliferation”.

And the colony forming ability [3]?
Its colony forming ability is “increase the colony forming ability”.
